Values after ≈ are worked out from the molar mass of the structure shown.
Tests used:
Escherichia coli [1] = assay: Antibacterial activity against Escherichia coli J53 harboring plasmid pA-1carrying beta-lactamase OXA-48 by Etest method; type: functional
Klebsiella pneumoniae [2] = assay: Antibacterial activity against Klebsiella pneumoniae 11978 harboring plasmid pA-1carrying beta-lactamase OXA-48 by Etest method; type: functional
Klebsiella pneumoniae [3] = assay: Antibacterial activity against human urinary Klebsiella pneumoniae UCL-1 harboring plasmid-encoded beta-lactamase OXA-48 by Etest method; type: functional; settings: UCL-1, Urine
Escherichia coli [4] = assay: Antibacterial activity against Escherichia coli J53 harboring plasmid-encoded beta-lactamase OXA-48 by Etest method; type: functional
Escherichia coli [5] = assay: Antibacterial activity against Escherichia coli J53 by Etest method; type: functional
Escherichia coli [6] = assay: Antibacterial activity against Escherichia coli J53 by Etest method in presence of beta-lactamase inhibitor clavulanic acid; type: functional
Escherichia coli [7] = assay: Antibacterial activity against Escherichia coli J53 harboring plasmid-encoded beta-lactamase OXA-48 by Etest method in presence of beta-lactamase inhibitor clavulanic acid; type: functional
Klebsiella pneumoniae [8] = assay: Antibacterial activity against Klebsiella pneumoniae 11978 harboring plasmid pA-1carrying beta-lactamase OXA-48 by Etest method in presence of beta-lactamase inhibitor clavulanic acid; type: functional
Escherichia coli [9] = assay: Antibacterial activity against Escherichia coli J53 harboring plasmid pA-1carrying beta-lactamase OXA-48 by Etest method in presence of beta-lactamase inhibitor clavulanic acid; type: functional
Klebsiella pneumoniae [10] = assay: Antibacterial activity against human urinary Klebsiella pneumoniae UCL-1 harboring plasmid-encoded beta-lactamase OXA-48 by Etest method in presence of beta-lactamase inhibitor clavulanic acid; type: functional; settings: UCL-1, Urine
Klebsiella pneumoniae [11] = assay: Antibacterial activity against amoxicillin and amoxicillin-clavulanate resistant Klebsiella pneumoniae UCL-1 assessed as zone of inhibition by disk diffusion method; type: functional
[12] = biological target: Beta-lactamase OXA-48 (Klebsiella pneumoniae) (UniProt Q6XEC0); assay: Compound hydrolyzing activity of Klebsiella pneumoniae beta-lactamase OXA-48; settings: UCL-1
Klebsiella pneumoniae [13] = assay: Antibacterial activity against Klebsiella pneumoniae 11978 harboring plasmid pA-1carrying beta-lactamase OXA-48 by Etest method in presence of beta-lactamase inhibitor Tazobactam; type: functional
Escherichia coli [14] = assay: Antibacterial activity against Escherichia coli J53 harboring plasmid pA-1carrying beta-lactamase OXA-48 by Etest method in presence of beta-lactamase inhibitor Tazobactam; type: functional
Klebsiella pneumoniae [15] = assay: Antibacterial activity against human urinary Klebsiella pneumoniae UCL-1 harboring plasmid-encoded beta-lactamase OXA-48 by Etest method in presence of beta-lactamase inhibitor Tazobactam; type: functional; settings: UCL-1, Urine
Escherichia coli [16] = assay: Antibacterial activity against Escherichia coli J53 harboring plasmid-encoded beta-lactamase OXA-48 by Etest method in presence of beta-lactamase inhibitor Tazobactam; type: functional
Escherichia coli [17] = assay: Antibacterial activity against Escherichia coli J53 by Etest method in presence of beta-lactamase inhibitor Tazobactam; type: functional

Chain of Beta-lactamase OXA-48 (Klebsiella pneumoniae) (Q6XEC0 whole entry): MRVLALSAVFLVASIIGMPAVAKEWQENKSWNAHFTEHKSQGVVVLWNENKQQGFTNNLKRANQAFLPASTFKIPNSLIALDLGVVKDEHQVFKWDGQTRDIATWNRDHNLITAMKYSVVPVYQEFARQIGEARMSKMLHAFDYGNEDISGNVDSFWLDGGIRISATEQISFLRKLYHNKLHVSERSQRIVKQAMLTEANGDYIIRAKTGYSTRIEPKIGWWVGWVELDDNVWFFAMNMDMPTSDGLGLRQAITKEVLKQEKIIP

Structure (SMILES)	MIC (Escherichia coli [1]) [µg/mL]	MIC (Klebsiella pneumoniae [2]) [µg/mL]	MIC (Klebsiella pneumoniae [3]) [µg/mL]	MIC (Escherichia coli [4]) [µg/mL]	MIC (Escherichia coli [5]) [µg/mL]	MIC (Escherichia coli [6]) [µg/mL]	MIC (Escherichia coli [7]) [µg/mL]	MIC (Klebsiella pneumoniae [8]) [µg/mL]	MIC (Escherichia coli [9]) [µg/mL]	MIC (Klebsiella pneumoniae [10]) [µg/mL]	inhibition zone (IZ) (Klebsiella pneumoniae [11]) [mm]	Activity [12] [µmol/min/mg]	MIC (Klebsiella pneumoniae [13]) [µg/mL]	MIC (Escherichia coli [14]) [µg/mL]	MIC (Klebsiella pneumoniae [15]) [µg/mL]	MIC (Escherichia coli [16]) [µg/mL]	MIC (Escherichia coli [17]) [µg/mL]
CC1(C)S[C@@H]2[C@H](NC(=O)[C@H](N)c3ccc(O)cc3)C(=O)N2[C@H]1C(=O)O [AMOXICILLIN]	> 256	> 256	> 256	> 256	4 (≈ 10.9 µM)	4	> 256	> 256	> 256	> 256							
C[C@H]1[C@H](NC(=O)/C(=N\OC(C)(C)C(=O)O)c2csc(N)n2)C(=O)N1S(=O)(=O)O [AZTREONAM]	0.064 (≈ 0.147 µM)	> 256	0.064 (≈ 0.147 µM)	0.064 (≈ 0.147 µM)													
CO/N=C(\C(=O)N[C@@H]1C(=O)N2C(C(=O)[O-])=C(C[N+]3(C)CCCC3)CS[C@H]12)c1csc(N)n1 [CEFEPIME]	0.125 (≈ 0.26 µM)	32 (≈ 66.6 µM)	0.125 (≈ 0.26 µM)	0.125 (≈ 0.26 µM)	0.03 (≈ 0.0624 µM)												
CO/N=C(\C(=O)N[C@@H]1C(=O)N2C(C(=O)O)=C(COC(C)=O)CS[C@H]12)c1csc(N)n1 [CEFOTAXIME]	0.38 (≈ 0.834 µM)	64 (≈ 141 µM)	0.125 (≈ 0.274 µM)	0.38 (≈ 0.834 µM)	0.06 (≈ 0.132 µM)												
CO[C@@]1(NC(=O)Cc2cccs2)C(=O)N2C(C(=O)O)=C(COC(N)=O)CS[C@@H]21 [CEFOXITIN]	2 (≈ 4.68 µM)	128 (≈ 299 µM)	2 (≈ 4.68 µM)	2 (≈ 4.68 µM)	2 (≈ 4.68 µM)												
CC(C)(O/N=C(\C(=O)N[C@@H]1C(=O)N2C(C(=O)[O-])=C(C[n+]3ccccc3)CS[C@H]12)c1csc(N)n1)C(=O)O [CEFTAZIDIME]	0.75 (≈ 1.37 µM)	> 256	1 (≈ 1.83 µM)	0.75 (≈ 1.37 µM)	0.06 (≈ 0.11 µM)												
CC(=O)OCC1=C(C(=O)O)N2C(=O)[C@@H](NC(=O)Cc3cccs3)[C@H]2SC1 [CEPHALOTHIN]	8 (≈ 20.2 µM)	> 256	16 (≈ 40.4 µM)	8 (≈ 20.2 µM)	4 (≈ 10.1 µM)												
C[C@@H](O)[C@H]1C(=O)N2C(C(=O)O)=C(S[C@@H]3CN[C@H](C(=O)Nc4cccc(C(=O)O)c4)C3)[C@H](C)[C@H]12 [ERTAPENEM]	2 (≈ 4.21 µM)	> 32	4 (≈ 8.41 µM)	2 (≈ 4.21 µM)	0.03 (≈ 0.0631 µM)						18	0.04					
C[C@@H](O)[C@H]1C(=O)N2C(C(=O)O)=C(SCCNC=N)C[C@H]12 [IMIPENEM ANHYDROUS]	1 (≈ 3.34 µM)	64 (≈ 214 µM)	0.75 (≈ 2.51 µM)	0.75 (≈ 2.51 µM)							22	1.6					
C[C@@H](O)[C@H]1C(=O)N2C(C(=O)O)=C(S[C@@H]3CN[C@H](C(=O)N(C)C)C3)[C@H](C)[C@H]12 [MEROPENEM]	0.5 (≈ 1.3 µM)	64 (≈ 167 µM)	0.5 (≈ 1.3 µM)	0.5 (≈ 1.3 µM)	0.03 (≈ 0.0782 µM)						23	0.05					
CCN1CCN(C(=O)N[C@@H](C(=O)N[C@@H]2C(=O)N3[C@@H]2SC(C)(C)[C@@H]3C(=O)O)c2ccccc2)C(=O)C1=O [PIPERACILLIN]	128 (≈ 247 µM)	> 256	256 (≈ 495 µM)	128 (≈ 247 µM)	1 (≈ 1.93 µM)								> 256	128	256	128	1
CC1(C)S[C@@H]2[C@H](NC(=O)[C@H](C(=O)O)c3ccsc3)C(=O)N2[C@H]1C(=O)O [TICARCILLIN]	> 256	> 256	> 256	> 256	2 (≈ 5.2 µM)	2	> 256	> 256	> 256	> 256							
CN(C)c1cc(NC(=O)CNC(C)(C)C)c(O)c2c1C[C@H]1C[C@H]3[C@H](N(C)C)C(O)=C(C(N)=O)C(=O)[C@@]3(O)C(O)=C1C2=O [TIGECYCLINE]	0.5 (≈ 0.854 µM)	1.5 (≈ 2.56 µM)	2 (≈ 3.41 µM)	0.5 (≈ 0.854 µM)	0.5 (≈ 0.854 µM)												

— ChEMBL document CHEMBL1275509, “Plasmid-encoded carbapenem-hydrolyzing beta-lactamase OXA-48 in an imipenem-susceptible Klebsiella pneumoniae strain from Belgium” (2008)
